These results are taken from PubChem BioAssay (NCI).

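All cell lines were grown in 96-well plates and treated with compound for 48 hours. Definition used: TGI = concentration required for complete inhibition of growth.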 A value given as a limit tells only on which side of the number the result lay.

Some test systems named below: U251 CNS; TK-10 renal; ACHN renal; KM12 colon; HCT-15 colon; MOLT-4 leukemia; SK-MEL-2 melanoma; OVCAR-4 ovarian; MDA-MB-435; BT-549 breast; K-562 leukemia; SK-OV-3 ovarian; SK-MEL-28 melanoma; PC-3 prostate; SR leukemia; MALME-3M melanoma; T-47D breast; A498 renal; SF-539 CNS; SNB-75 CNS.
What all share (experiment): NCI tumour cell line growth inhibition, 48 h

In the case of `NS(=O)(=O)c1cc(S(N)(=O)=O)c(NC(=O)Nc2ccc(Cl)c(Cl)c2)c(Cl)c1Cl`, the TGI in the assay with U251 CNS, in the assay with TK-10 renal, with ACHN renal, with KM12 colon, in the assay on HCT-15 colon and with MOLT-4 leukemia was greater than 100 µM each time. In addition, the TGI with SK-MEL-2 melanoma, in the assay with OVCAR-4 ovarian, in the assay with MDA-MB-435, in the assay on BT-549 breast, with K-562 leukemia and with SK-OV-3 ovarian was greater than 100 µM in each case. The TGI in the assay on SK-MEL-28 melanoma, in the assay on PC-3 prostate and with SR leukemia was greater than 100 µM in each case.
For `CN(C)c1ccc(/C=C2\C[C@H]3[C@@H]4CCC5=CC(=O)CC[C@]5(C)[C@H]4CC[C@]3(C)C2=O)cc1`, the TGI in the assay on U251 CNS was 85.6 µM; in the assay with TK-10 renal it was greater than 100 µM; in the assay with ACHN renal, greater than 100 µM; in the assay on MALME-3M melanoma, 72.9 µM; in the assay on T-47D breast it was greater than 100 µM; with KM12 colon it was greater than 100 µM. For the same molecule, the TGI in the assay on HCT-15 colon, in the assay on MOLT-4 leukemia, with SK-MEL-2 melanoma, in the assay on OVCAR-4 ovarian, in the assay on BT-549 breast and in the assay with K-562 leukemia was greater than 100 µM each time. Further, the TGI was greater than 100 µM in the assay on SK-OV-3 ovarian; greater than 100 µM in the assay with A498 renal; greater than 100 µM in the assay with SF-539 CNS; greater than 100 µM in the assay with SK-MEL-28 melanoma; greater than 100 µM in the assay with SNB-75 CNS; 66.8 µM in the assay with PC-3 prostate. This molecule returned a TGI with SR leukemia greater than 100 µM.
Regarding `O=C1OC(C2Cc3cc4c(cc3C2=O)CCC4)c2ccccc21` (centres undefined), the TGI in the assay on U251 CNS, with TK-10 renal, in the assay on ACHN renal, in the assay with MALME-3M melanoma, in the assay with T-47D breast and in the assay on KM12 colon was greater than 100 µM each time. The TGI with HCT-15 colon was greater than 100 µM; in the assay on MOLT-4 leukemia, 64.4 µM; with SK-MEL-2 melanoma, greater than 100 µM; in the assay with OVCAR-4 ovarian, greater than 100 µM; in the assay on MDA-MB-435 it was greater than 100 µM; with K-562 leukemia, greater than 100 µM. Moreover, the TGI in the assay with SK-OV-3 ovarian is greater than 100 µM; in the assay on A498 renal, 61.6 µM; in the assay on SF-539 CNS, 80.4 µM; in the assay with SK-MEL-28 melanoma, greater than 100 µM; with SNB-75 CNS, greater than 100 µM; with PC-3 prostate, greater than 100 µM. This molecule also registered a TGI in the assay on SR leukemia greater than 100 µM.
In the case of `C/C(Sc1ccccc1)=C1/CCCN(Cc2ccccc2)C1`, the TGI with U251 CNS was 57.8 µM; in the assay with TK-10 renal, 60.4 µM; in the assay with ACHN renal, greater than 100 µM; with MALME-3M melanoma, 28.6 µM; with T-47D breast, 33.5 µM; with KM12 colon, 98.2 µM. For the same molecule, the TGI in the assay on HCT-15 colon is 42.5 µM; with MOLT-4 leukemia, 39.4 µM; with SK-MEL-2 melanoma, 34 µM; with OVCAR-4 ovarian, greater than 100 µM; in the assay on MDA-MB-435 it was 87.7 µM; in the assay on K-562 leukemia, 38.6 µM. Also, the TGI with SK-OV-3 ovarian was greater than 100 µM; in the assay with A498 renal it was greater than 100 µM; in the assay on SF-539 CNS, greater than 100 µM; with SK-MEL-28 melanoma, 83 µM; in the assay on SNB-75 CNS, 86.3 µM; in the assay with PC-3 prostate, 59.9 µM. For the same molecule, the TGI in the assay on SR leukemia came to 35.7 µM.
Regarding `Nn1c(-c2ccccc2Nc2ccccc2-c2n[nH]c(=S)n2N)n[nH]c1=S`, the TGI in the assay on U251 CNS, in the assay on TK-10 renal, in the assay on ACHN renal, with MALME-3M melanoma, in the assay on KM12 colon and with HCT-15 colon was greater than 50 µM throughout. Further, the TGI in the assay with MOLT-4 leukemia, with SK-MEL-2 melanoma, with OVCAR-4 ovarian, with MDA-MB-435, in the assay with BT-549 breast and in the assay with K-562 leukemia was greater than 50 µM throughout. Moreover, the TGI in the assay with SF-539 CNS, in the assay with SK-MEL-28 melanoma, with SNB-75 CNS, in the assay with PC-3 prostate and in the assay with SR leukemia was greater than 50 µM each time.
Turning to `NC(=O)ON=C1CCN(Cc2ccccc2)CC1`, the TGI with U251 CNS, with TK-10 renal, in the assay with ACHN renal, with MALME-3M melanoma, with T-47D breast and with KM12 colon was greater than 100 µM in each case. The TGI in the assay with HCT-15 colon, in the assay on MOLT-4 leukemia, in the assay on SK-MEL-2 melanoma, with OVCAR-4 ovarian, in the assay on MDA-MB-435 and in the assay on K-562 leukemia was greater than 100 µM each time. The TGI in the assay with SK-OV-3 ovarian, in the assay on A498 renal, in the assay on SF-539 CNS, with SK-MEL-28 melanoma, in the assay with SNB-75 CNS and in the assay on PC-3 prostate was greater than 100 µM in each case. Further, the TGI in the assay on SR leukemia is greater than 100 µM.
In the case of `C/C(=C/CNc1ncnc2c1ncn2CCC(=O)O)CO`, the TGI with TK-10 renal, with ACHN renal, in the assay with MALME-3M melanoma, with T-47D breast, with KM12 colon and in the assay on MOLT-4 leukemia was greater than 100 µM throughout. Moreover, the TGI in the assay with OVCAR-4 ovarian, in the assay with MDA-MB-435, in the assay with K-562 leukemia, with SK-OV-3 ovarian, in the assay with A498 renal and in the assay on SF-539 CNS was greater than 100 µM each time. For the same molecule, the TGI in the assay with SK-MEL-28 melanoma, in the assay on SNB-75 CNS, with PC-3 prostate and in the assay on SR leukemia was greater than 100 µM in each case.
